The target of experiment [1] is T1, Glycylpeptide N-tetradecanoyltransferase 1 (Homo sapiens) (UniProt P30419).
T1 sequence (whole entry): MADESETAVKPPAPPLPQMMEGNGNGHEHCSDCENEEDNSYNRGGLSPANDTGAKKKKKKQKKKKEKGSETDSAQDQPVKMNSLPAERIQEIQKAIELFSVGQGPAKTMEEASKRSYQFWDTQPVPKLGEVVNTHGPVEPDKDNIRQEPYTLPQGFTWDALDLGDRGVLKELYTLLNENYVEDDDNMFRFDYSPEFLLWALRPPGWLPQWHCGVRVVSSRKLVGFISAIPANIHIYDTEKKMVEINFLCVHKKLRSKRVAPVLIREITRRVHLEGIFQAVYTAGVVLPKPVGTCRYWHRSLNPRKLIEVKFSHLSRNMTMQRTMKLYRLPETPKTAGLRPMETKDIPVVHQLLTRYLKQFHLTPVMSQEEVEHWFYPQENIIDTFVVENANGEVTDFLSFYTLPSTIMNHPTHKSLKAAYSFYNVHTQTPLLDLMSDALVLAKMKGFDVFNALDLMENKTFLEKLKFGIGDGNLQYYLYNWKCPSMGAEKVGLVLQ
Briefly: In vitro production of Acylpeptide by human N-myristoyltransferase (NMT) assay.

The test system of experiment [2] is CCRF-CEM. Briefly: Tested for cytotoxicity against HIV-1 uninfected CEM cells; Value ranges from 80-190. Format: functional. The note with it: Homo sapiens, read-out: TD50 (the source's name).
Experiment [3] relates to Pseudomonas. Briefly: Tested in vitro for the production of acyl-CoA by Acyl-CoA synthetase in Pseudomonas.
Experiment [4] concerns the target Glycylpeptide N-tetradecanoyltransferase (Saccharomyces cerevisiae) (UniProt P14743). Nature of the experiment: Tested in vitro for the production of Acylpeptide by yeast N-myristoyltransferase (NMT) assay.
The species named for experiment [5] is Homo sapiens. Briefly: Tested in vitro for the production of acyl-CoA of compound by Acyl-CoA synthetase in human.
Experiment [6] has as its system CCRF-CEM. Briefly: Tested for the antiviral activity against HIV-1 infected CEM cells; Value ranges from 1-5. Format: functional. The note with it: Homo sapiens, read-out: ID50 (the source's name).
Experiment [7] has as its system CCRF-CEM. Nature of the experiment: Tested for cytotoxicity against HIV-1 uninfected CEM cells. Format: functional. The note with it: Homo sapiens, read-out: TD50 (the source's name).
In experiment [8] the test system is CCRF-CEM. Briefly: Tested for the antiviral activity against HIV-1 infected CEM cells; Value ranges from 9-20. Format: functional. The note with it: Homo sapiens, read-out: ID50 (the source's name).
Experiment [9] deals with CCRF-CEM. Nature of the experiment: Tested for the antiviral activity against HIV-1 infected CEM cells. Format: functional. As to conditions: Homo sapiens, read-out: ID50 (the source's name).
Experiment [10] relates to CCRF-CEM. Nature of the experiment: Tested for the antiviral activity against HIV-1 infected CEM cells; NA means not active. As to conditions: Homo sapiens. Format: functional, cell-based.

Molecules are shown by their SMILES. pIC50: −log10 of the molar value. Active and inactive are the calls of the source. The rule behind the calls is not given here. Some results are limits rather than exact numbers.

Chain of Glycylpeptide N-tetradecanoyltransferase (Saccharomyces cerevisiae) (P14743 whole entry, looked up): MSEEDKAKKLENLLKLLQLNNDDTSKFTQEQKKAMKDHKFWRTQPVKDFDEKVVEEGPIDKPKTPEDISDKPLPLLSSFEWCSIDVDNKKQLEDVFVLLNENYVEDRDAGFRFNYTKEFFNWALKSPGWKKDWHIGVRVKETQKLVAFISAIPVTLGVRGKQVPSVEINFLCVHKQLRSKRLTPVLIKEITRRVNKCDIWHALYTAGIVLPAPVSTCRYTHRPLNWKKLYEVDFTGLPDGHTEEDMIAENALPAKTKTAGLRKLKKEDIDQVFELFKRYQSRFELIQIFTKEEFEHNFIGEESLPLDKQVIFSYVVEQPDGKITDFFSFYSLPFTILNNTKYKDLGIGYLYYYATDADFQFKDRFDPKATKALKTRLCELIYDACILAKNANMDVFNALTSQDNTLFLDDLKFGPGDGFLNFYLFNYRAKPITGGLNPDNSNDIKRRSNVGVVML

On to `COCCCCCCCCCCCCC(=O)O`, for which the Myristoylpeptide in [1] worked out at 84%; in experiment [4], 109%. Moreover, in [2], the CC50 was found to be 80 µM. Also, the MyristoylCoA in experiment [3] was determined as 175%; in experiment [5], 75%. Further, in experiment [6], the pIC50 was 6.00.
With `COCCCCCCCCCC(O)CC(=O)O` (centres undefined), the Myristoylpeptide in experiment [1] and in experiment [4] was below 5% throughout. The MyristoylCoA in [3] is 114%; in experiment [5], below 5%. The CC50 in experiment [7] was determined as 280 µM. Further, the pIC50 in experiment [8] was 5.05.
For `COCCCCCCCCC/C=C/C(=O)O`, the Myristoylpeptide in [1] came out at 5%; in experiment [4] it was 7%. Also, the MyristoylCoA in experiment [3] amounted to 78%; in experiment [5], 12%. For the same compound, the CC50 in experiment [7] was above 80 µM. Besides, the pIC50 in experiment [9] was 5.30.
As for `COCCCCCCCCC(O)CCC(=O)O` (centres undefined), the figures for the Myristoylpeptide in experiment [1] and in experiment [4] were below 5% and 107%, respectively. In addition, the CC50 in experiment [7] is above 400 µM. The pIC50 in experiment [9] is 4.11.
In the case of `COCCCCCCCCCCC(F)C(=O)O` (centres undefined), the figures for the Myristoylpeptide in [1] and in experiment [4] were below 5% and 14%, respectively. Moreover, the values for the MyristoylCoA in experiment [3] and in experiment [5] were 14% and 26%, respectively. The CC50 in experiment [7] was above 100 µM. Also, the ID50 result in [10] is “inactive”.
As for `COCCCCCCCCCC(F)CC(=O)O` (centres undefined), the Myristoylpeptide was 5% in [1] and below 5% in [4]. The MyristoylCoA in [3] is 94%; in experiment [5] it was below 5%. Also, in experiment [7], the CC50 stood at 300 µM. Moreover, in [6], the pIC50 is 6.00.

The record behind these values is ChEMBL document CHEMBL1126994, “Synthesis of myristic acid analogs with anti-HIV activity that may be resistant to metabolic processing by -oxidation” (1993).
